Measurements reported in PubChem BioAssay AID330 (DTP/NCI, 2004).
Inconclusive results and toxic doses are left out. How the source made its calls: active means survival T/C of 150% or more; inactive means T/C below 125% in these data.

Tested on: P388 leukemia ip, CD2F1 mice, survival T/C
Assay: NCI In Vivo Anticancer Drug Screen. Data for tumor model P388 Leukemia (intraperitoneal) in CD2F1 (CDF1) mice
Conditions: endpoint: median survival time, higher = longer survival
Outline: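 Mice carrying the transplanted tumor received test compound or vehicle. Survival was recorded in each group, and the value is the treated-group measurement divided by that of the vehicle-treated control group.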

[1] = dose: 50.0 mg/kg/injection, schedule: Q01DX005 (ip), vehicle: saline with Tween-80
[2] = dose: 50.0 mg/kg/injection, schedule: Q01DX005 (ip), vehicle: Klucel (hydroxypropylcellulose) (HPC)
[3] = dose: 100.0 mg/kg/injection, schedule: Q01DX005 (ip), vehicle: Klucel (hydroxypropylcellulose) (HPC)
[4] = dose: 200.0 mg/kg/injection, schedule: Q01DX005 (ip), vehicle: Klucel (hydroxypropylcellulose) (HPC)
[5] = dose: 100.0 mg/kg/injection, schedule: Q01DX005 (ip), vehicle: saline with Tween-80
[6] = dose: 200.0 mg/kg/injection, schedule: Q01DX005 (ip), vehicle: saline with Tween-80
[7] = dose: 60.0 mg/kg/injection, schedule: Q01DX005 (ip), vehicle: Klucel (hydroxypropylcellulose) (HPC)
[8] = dose: 120.0 mg/kg/injection, schedule: Q01DX005 (ip), vehicle: Klucel (hydroxypropylcellulose) (HPC)
[9] = dose: 240.0 mg/kg/injection, schedule: Q01DX005 (ip), vehicle: Klucel (hydroxypropylcellulose) (HPC)
[10] = dose: 12.5 mg/kg/injection, schedule: Q01DX009 (ip), vehicle: Klucel (hydroxypropylcellulose) (HPC)

Measured: T/C

Cc1ccc(O)c2c(NCCCCCCNc3cc(C)[n+](C)c4c(C)ccc(O)c34)cc(C)[n+](C)c12
inactive: dose: 12.5 mg/kg/injection, schedule: Q01DX005 (ip), vehicle: saline with Tween-80 99 % of control | dose: 25.0 mg/kg/injection, schedule: Q01DX005 (ip), vehicle: saline with Tween-80 112 % of control | [1] 92 % of control

COc1ccc(Cc2cc3c(cc2OCC(=O)N2CCOCC2)OCO3)cc1
inactive: [2] 97 % of control | [3] 89 % of control | [4] 97 % of control

CCN(CC)c1ccc(/C=N\Nc2ccc([N+](=O)[O-])cn2)cc1
inactive: [1] 93 % of control | [5] 90 % of control | [6] 87 % of control

COc1cccc(C)c1C1CC2CCCN2O1 (stereo not given)
inactive: dose: 50.0 mg/kg/injection, schedule: Q01DX009 (ip), vehicle: Klucel (hydroxypropylcellulose) (HPC) 105 % of control | dose: 100.0 mg/kg/injection, schedule: Q01DX009 (ip), vehicle: Klucel (hydroxypropylcellulose) (HPC) 106 % of control | dose: 200.0 mg/kg/injection, schedule: Q01DX009 (ip), vehicle: Klucel (hydroxypropylcellulose) (HPC) 89 % of control

O=C1c2ccc(Cl)cc2NC(O)c2cccn21 (stereo not given)
inactive: dose: 0.1 mg/kg/injection, schedule: Q01DX005 (ip), vehicle: water 99 % of control | dose: 0.2 mg/kg/injection, schedule: Q01DX005 (ip), vehicle: water 98 % of control | dose: 0.4 mg/kg/injection, schedule: Q01DX005 (ip), vehicle: water 98 % of control | dose: 0.8 mg/kg/injection, schedule: Q01DX005 (ip), vehicle: water 100 % of control | dose: 1.6 mg/kg/injection, schedule: Q01DX005 (ip), vehicle: water 98 % of control | dose: 5.0 mg/kg/injection, schedule: Q01DX005 (ip), vehicle: distilled water + Tween-80 95 % of control | dose: 10.0 mg/kg/injection, schedule: Q01DX005 (ip), vehicle: distilled water + Tween-80 99 % of control | dose: 20.0 mg/kg/injection, schedule: Q01DX005 (ip), vehicle: distilled water + Tween-80 100 % of control | dose: 40.0 mg/kg/injection, schedule: Q01DX005 (ip), vehicle: distilled water + Tween-80 93 % of control | dose: 80.0 mg/kg/injection, schedule: Q01DX005 (ip), vehicle: distilled water + Tween-80 98 % of control

CN(/N=C(C#N)/C(N)=N/NC(=O)c1ccccc1)c1ccccc1
inactive: dose: 25.0 mg/kg/injection, schedule: Q04DX002 (ip), vehicle: saline with Tween-80 103 % of control | dose: 50.0 mg/kg/injection, schedule: Q04DX002 (ip), vehicle: saline with Tween-80 96 % of control | dose: 100.0 mg/kg/injection, schedule: Q04DX002 (ip), vehicle: saline with Tween-80 96 % of control

CC(=O)Nc1ccc(S(=O)(=O)NCCSS(=O)(=O)O)cc1
inactive: [1] 101 % of control | [5] 109 % of control | [6] 109 % of control

CCc1nc(N)nc(N)c1-c1ccc(N(C)Cc2ccccc2)c([N+](=O)[O-])c1
inactive: [7] 116 % of control | [8] 120 % of control
active: [9] 185 % of control | dose: 480.0 mg/kg/injection, schedule: Q01DX005 (ip), vehicle: Klucel (hydroxypropylcellulose) (HPC) 205 % of control

CCOC(=O)c1ccc(NC(=S)Nc2nccs2)cc1
inactive: dose: 25.0 mg/kg/injection, schedule: Q01DX009 (ip), vehicle: distilled water + Tween-80 99 % of control | dose: 50.0 mg/kg/injection, schedule: Q01DX009 (ip), vehicle: distilled water + Tween-80 101 % of control | dose: 100.0 mg/kg/injection, schedule: Q01DX009 (ip), vehicle: distilled water + Tween-80 95 % of control | dose: 200.0 mg/kg/injection, schedule: Q01DX009 (ip), vehicle: distilled water + Tween-80 92 % of control | dose: 400.0 mg/kg/injection, schedule: Q01DX009 (ip), vehicle: distilled water + Tween-80 92 % of control

NC(N)=NC(N)=Nc1cc2c3ccccc3ccc2c2ccccc12
inactive: dose: 25.0 mg/kg/injection, schedule: Q01DX001 (ip), vehicle: saline with Tween-80 100 % of control | dose: 50.0 mg/kg/injection, schedule: Q01DX001 (ip), vehicle: saline with Tween-80 98 % of control | dose: 100.0 mg/kg/injection, schedule: Q01DX001 (ip), vehicle: saline with Tween-80 92 % of control

c1c[nH]c2c3ccncc3c3ncnc3c2c1
inactive: [2] 97 % of control | [3] 88 % of control

O=C(NCc1nc2ccccc2[nH]1)C(F)(F)F
inactive: [7] 103 % of control | [8] 105 % of control | [9] 104 % of control

NS(=O)(=O)c1ccc(NCc2c3ccccc3nc3cc(Cl)ccc23)cc1
inactive: dose: 60.0 mg/kg/injection, schedule: Q01DX005 (ip), vehicle: saline with Tween-80 104 % of control | dose: 120.0 mg/kg/injection, schedule: Q01DX005 (ip), vehicle: saline with Tween-80 95 % of control | dose: 240.0 mg/kg/injection, schedule: Q01DX005 (ip), vehicle: saline with Tween-80 94 % of control

C/C=C1\CN2CCC34c5ccccc5N(C)C35OCC4(C(=O)OC)C1CC25 (stereo not given)
inactive: dose: 5.25 mg/kg/injection, schedule: Q01DX005 (ip), vehicle: saline + Tween-80 + alcohol 100 % of control | dose: 10.5 mg/kg/injection, schedule: Q01DX005 (ip), vehicle: saline + Tween-80 + alcohol 92 % of control | dose: 21.0 mg/kg/injection, schedule: Q01DX005 (ip), vehicle: saline + Tween-80 + alcohol 98 % of control | dose: 42.0 mg/kg/injection, schedule: Q01DX005 (ip), vehicle: saline + Tween-80 + alcohol 96 % of control

O=S(=O)(Nc1nccs1)c1ccc(N=Cc2c3ccccc3nc3cc(Cl)ccc23)cc1
inactive: [1] 94 % of control | [5] 93 % of control | [6] 96 % of control

CCN(CC)Cc1c(O)c(N=Nc2cccc3ccccc23)cc2ccccc12
inactive: dose: 3.0 mg/kg/injection, schedule: Q01DX009 (ip), vehicle: Klucel (hydroxypropylcellulose) (HPC) 111 % of control | dose: 6.0 mg/kg/injection, schedule: Q01DX009 (ip), vehicle: Klucel (hydroxypropylcellulose) (HPC) 107 % of control | dose: 12.0 mg/kg/injection, schedule: Q01DX009 (ip), vehicle: Klucel (hydroxypropylcellulose) (HPC) 104 % of control | [10] 113 % of control

CCN(CC)C1CC(C)(O)Cc2cc3c(c(O)c21)C(=O)c1c(O)cc2c(c1C3=O)OC1OC2(C)C(O)C(N(C)C)C1O (stereo not given)
inactive: dose: 50.0 mg/kg/injection, schedule: Q01DX009 (ip), vehicle: other 93 % of control

Nc1cc2c(c[n+](CCO)c3ccccc23)c2ccccc12
inactive: dose: 12.5 mg/kg/injection, schedule: Q04DX003 (ip), vehicle: other 118 % of control | dose: 25.0 mg/kg/injection, schedule: Q04DX003 (ip), vehicle: other 111 % of control | dose: 50.0 mg/kg/injection, schedule: Q04DX003 (ip), vehicle: other 118 % of control | dose: 100.0 mg/kg/injection, schedule: Q04DX003 (ip), vehicle: other 102 % of control

COc1ccc(CC2c3cc(OC)c(OC)cc3CCN2C(C)=O)cc1OC (stereo not given)
inactive: dose: 3.0 mg/kg/injection, schedule: Q01DX005 (ip), vehicle: saline with Tween-80 99 % of control | dose: 6.0 mg/kg/injection, schedule: Q01DX005 (ip), vehicle: saline with Tween-80 102 % of control | dose: 12.0 mg/kg/injection, schedule: Q01DX005 (ip), vehicle: saline with Tween-80 95 % of control

O=[N+]([O-])O.[Cu+2].[NH-]CC[NH-].[NH-]CC[NH-]
inactive: dose: 3.12 mg/kg/injection, schedule: Q01DX009 (ip), vehicle: saline 100 % of control | dose: 6.25 mg/kg/injection, schedule: Q01DX009 (ip), vehicle: saline 100 % of control | dose: 12.5 mg/kg/injection, schedule: Q01DX009 (ip), vehicle: saline 100 % of control | dose: 25.0 mg/kg/injection, schedule: Q01DX009 (ip), vehicle: saline 92 % of control

NNc1n[nH]c(=S)n1N
inactive: dose: 6.25 mg/kg/injection, schedule: Q01DX009 (ip), vehicle: Klucel (hydroxypropylcellulose) (HPC) 94 % of control | dose: 6.25 mg/kg/injection, schedule: Q01DX009 (ip), vehicle: saline with Tween-80 109 % of control | [10] 94 % of control | dose: 12.5 mg/kg/injection, schedule: Q01DX009 (ip), vehicle: saline with Tween-80 100 % of control | dose: 25.0 mg/kg/injection, schedule: Q01DX009 (ip), vehicle: Klucel (hydroxypropylcellulose) (HPC) 106 % of control | dose: 25.0 mg/kg/injection, schedule: Q01DX009 (ip), vehicle: saline with Tween-80 104 % of control

O=c1cc(C(F)(F)F)c2cc3c4c(c2o1)CCCN4CCC3
inactive: [2] 106 % of control | [3] 100 % of control | [4] 99 % of control
